The values below come from ChEMBL document CHEMBL1201862, “PubChem BioAssay data set” (2004).

The source made the active and inactive calls.

Assay [1] deals with T1, Methionyl-tRNA synthetase, putative (Trypanosoma brucei brucei, UniProt Q38C91).
T1 sequence (Q38C91 whole entry): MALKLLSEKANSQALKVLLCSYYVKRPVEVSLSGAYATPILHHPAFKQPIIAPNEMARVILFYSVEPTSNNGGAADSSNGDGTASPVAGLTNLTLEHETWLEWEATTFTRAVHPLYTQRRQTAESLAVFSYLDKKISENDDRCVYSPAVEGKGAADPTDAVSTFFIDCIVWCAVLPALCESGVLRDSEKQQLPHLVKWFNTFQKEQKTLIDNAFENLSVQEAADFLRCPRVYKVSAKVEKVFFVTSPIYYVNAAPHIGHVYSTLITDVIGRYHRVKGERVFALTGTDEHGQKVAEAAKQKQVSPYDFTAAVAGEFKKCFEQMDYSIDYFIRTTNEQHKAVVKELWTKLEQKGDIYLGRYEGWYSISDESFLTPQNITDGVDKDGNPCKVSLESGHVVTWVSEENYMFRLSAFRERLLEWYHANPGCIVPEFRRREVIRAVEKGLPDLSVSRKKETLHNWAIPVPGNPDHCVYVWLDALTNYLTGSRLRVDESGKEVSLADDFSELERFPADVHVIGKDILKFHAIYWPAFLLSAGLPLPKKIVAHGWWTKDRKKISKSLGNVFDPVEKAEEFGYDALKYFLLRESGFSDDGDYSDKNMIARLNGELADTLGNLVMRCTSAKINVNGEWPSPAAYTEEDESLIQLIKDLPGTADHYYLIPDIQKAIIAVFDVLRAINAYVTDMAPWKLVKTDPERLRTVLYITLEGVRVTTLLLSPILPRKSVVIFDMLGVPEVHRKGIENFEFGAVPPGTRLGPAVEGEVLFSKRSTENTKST
The class given is functional, Trypanosoma brucei brucei strain 927/4 GUTat10.1.

Assay [2] can be described thus: Counterscreen for inhibitors of Trypanosoma brucei methionyl tRNA synthetase (MetRS): Luminescence-based cell-based high throughput dose response assay to identify compounds that are cytotoxic to Jurkat human T lymphocyte cells. The class given is functional.
Assay [3] concerns the target T1, Methionyl-tRNA synthetase, putative. The format is functional, Trypanosoma brucei brucei strain 927/4 GUTat10.1. The source holds these as a separate data set.
For assay [4], the target named is T2, Heat shock factor protein 1 (Mus musculus, UniProt P38532).
T2 sequence (P38532 whole entry): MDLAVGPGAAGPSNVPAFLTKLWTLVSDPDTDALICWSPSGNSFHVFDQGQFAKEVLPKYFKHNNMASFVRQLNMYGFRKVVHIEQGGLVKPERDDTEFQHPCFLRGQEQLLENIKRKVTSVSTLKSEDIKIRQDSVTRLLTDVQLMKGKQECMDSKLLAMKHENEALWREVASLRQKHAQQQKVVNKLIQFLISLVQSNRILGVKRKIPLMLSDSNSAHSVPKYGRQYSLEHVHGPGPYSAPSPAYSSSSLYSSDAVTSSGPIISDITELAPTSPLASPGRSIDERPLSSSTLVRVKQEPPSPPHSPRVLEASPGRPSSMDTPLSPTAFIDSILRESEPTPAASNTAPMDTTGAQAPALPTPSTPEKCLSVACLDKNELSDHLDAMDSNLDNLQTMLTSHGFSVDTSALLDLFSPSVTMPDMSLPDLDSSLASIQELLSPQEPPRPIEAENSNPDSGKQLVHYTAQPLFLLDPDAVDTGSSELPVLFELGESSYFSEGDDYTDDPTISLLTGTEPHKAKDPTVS
The assay can be described thus: enhancement of HSF1-driven luciferase signal – cell-based, NIH3T3, luminescence, dose retest, confirmation (AID 435004).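 Also: stress induced by proteasome inhibitor MG132 added 30 min after compound; luciferase reporter driven by HSF1 response element in NIH3T3 cells; actives raise luminescence as potentiators of the MG132 stress response.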 The class given is functional.

Assay [5] addresses T3, Histone-lysine N-methyltransferase NSD2 (Homo sapiens, UniProt O96028).
T3 sequence (O96028 whole entry): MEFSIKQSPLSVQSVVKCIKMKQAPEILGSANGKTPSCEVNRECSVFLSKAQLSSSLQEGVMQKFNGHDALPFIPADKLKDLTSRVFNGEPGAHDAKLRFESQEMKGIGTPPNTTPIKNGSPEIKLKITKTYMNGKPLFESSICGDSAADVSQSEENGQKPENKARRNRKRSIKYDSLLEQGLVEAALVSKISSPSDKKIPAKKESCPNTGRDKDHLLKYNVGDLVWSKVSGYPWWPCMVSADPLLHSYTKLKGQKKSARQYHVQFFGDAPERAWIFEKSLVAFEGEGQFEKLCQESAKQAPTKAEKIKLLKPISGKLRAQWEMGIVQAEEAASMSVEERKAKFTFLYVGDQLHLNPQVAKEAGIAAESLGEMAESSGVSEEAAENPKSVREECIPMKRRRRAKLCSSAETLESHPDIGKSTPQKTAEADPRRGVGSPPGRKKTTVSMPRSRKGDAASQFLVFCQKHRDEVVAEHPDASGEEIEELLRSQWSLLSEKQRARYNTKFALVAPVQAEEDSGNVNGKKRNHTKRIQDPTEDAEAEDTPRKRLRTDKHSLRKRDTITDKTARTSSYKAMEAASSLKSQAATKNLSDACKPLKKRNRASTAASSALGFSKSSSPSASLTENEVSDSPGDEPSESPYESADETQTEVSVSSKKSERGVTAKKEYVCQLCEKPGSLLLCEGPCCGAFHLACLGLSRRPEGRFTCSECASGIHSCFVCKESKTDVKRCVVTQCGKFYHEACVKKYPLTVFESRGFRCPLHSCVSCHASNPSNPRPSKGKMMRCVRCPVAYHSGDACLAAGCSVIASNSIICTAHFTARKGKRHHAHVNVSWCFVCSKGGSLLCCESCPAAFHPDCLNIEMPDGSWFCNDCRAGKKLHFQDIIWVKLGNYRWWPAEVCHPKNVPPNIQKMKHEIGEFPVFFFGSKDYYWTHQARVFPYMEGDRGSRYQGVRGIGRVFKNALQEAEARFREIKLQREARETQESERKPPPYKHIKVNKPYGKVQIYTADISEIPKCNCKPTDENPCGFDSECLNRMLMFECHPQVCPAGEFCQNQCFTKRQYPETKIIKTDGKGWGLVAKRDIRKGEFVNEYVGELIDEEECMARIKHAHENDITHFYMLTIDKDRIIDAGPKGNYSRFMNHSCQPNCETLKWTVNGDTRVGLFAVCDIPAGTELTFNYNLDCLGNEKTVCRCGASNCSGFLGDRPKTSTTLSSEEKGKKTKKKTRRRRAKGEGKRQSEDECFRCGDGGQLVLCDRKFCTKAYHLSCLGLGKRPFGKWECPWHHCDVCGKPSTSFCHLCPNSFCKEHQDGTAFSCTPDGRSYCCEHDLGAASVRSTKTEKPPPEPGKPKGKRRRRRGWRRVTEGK
The format is biochemical.

In a further assay the target is T4, Caspase-6 (Homo sapiens, UniProt P55212).
T4 sequence (P55212 whole entry): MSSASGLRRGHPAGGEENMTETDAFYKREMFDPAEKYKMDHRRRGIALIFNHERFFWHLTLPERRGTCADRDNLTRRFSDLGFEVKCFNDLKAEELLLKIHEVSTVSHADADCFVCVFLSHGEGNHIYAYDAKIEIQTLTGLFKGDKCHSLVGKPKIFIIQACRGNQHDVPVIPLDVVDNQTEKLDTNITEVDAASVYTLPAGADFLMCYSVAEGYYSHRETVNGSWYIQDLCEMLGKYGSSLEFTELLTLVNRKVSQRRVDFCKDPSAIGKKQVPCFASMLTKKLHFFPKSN
The assay can be described thus: inhibition of CASP6 peptide cleavage – biochemical, VEID-R110 fluorescence, cherry-pick, dose response (AID 720632).

In assay [6] the target is T5, Short transient receptor potential channel 4 (Mus musculus, UniProt Q9QUQ5).
T5 sequence (Q9QUQ5 whole entry): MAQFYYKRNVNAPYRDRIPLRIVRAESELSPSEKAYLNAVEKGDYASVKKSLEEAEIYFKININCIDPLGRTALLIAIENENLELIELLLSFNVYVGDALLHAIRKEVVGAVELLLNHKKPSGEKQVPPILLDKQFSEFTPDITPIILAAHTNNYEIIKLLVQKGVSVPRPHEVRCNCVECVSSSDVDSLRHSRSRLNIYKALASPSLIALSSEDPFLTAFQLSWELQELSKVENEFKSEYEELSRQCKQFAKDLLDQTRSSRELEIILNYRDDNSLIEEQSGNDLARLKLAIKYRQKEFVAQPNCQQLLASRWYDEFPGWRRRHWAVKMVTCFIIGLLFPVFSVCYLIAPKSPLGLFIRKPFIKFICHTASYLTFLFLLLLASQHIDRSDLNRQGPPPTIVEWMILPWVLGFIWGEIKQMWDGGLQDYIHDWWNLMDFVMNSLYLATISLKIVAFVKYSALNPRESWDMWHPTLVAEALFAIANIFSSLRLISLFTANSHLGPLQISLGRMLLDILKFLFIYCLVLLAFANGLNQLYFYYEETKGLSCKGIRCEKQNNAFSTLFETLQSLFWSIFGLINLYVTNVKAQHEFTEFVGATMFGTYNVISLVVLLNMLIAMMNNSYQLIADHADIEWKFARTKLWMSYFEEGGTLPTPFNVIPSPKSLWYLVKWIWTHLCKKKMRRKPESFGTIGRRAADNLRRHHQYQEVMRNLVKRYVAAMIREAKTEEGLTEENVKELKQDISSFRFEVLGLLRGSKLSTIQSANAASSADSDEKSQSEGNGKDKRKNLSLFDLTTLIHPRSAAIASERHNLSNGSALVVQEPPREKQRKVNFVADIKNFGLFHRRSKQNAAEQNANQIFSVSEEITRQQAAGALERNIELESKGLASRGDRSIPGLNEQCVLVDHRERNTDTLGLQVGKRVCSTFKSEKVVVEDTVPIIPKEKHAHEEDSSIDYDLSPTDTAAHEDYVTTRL
The assay can be described thus: block of DAMGO-driven TRPC4 calcium entry – cell-based, HEK293 TRPC4/mu-opioid, Fluo-4 calcium, dose response (AID 434942).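 Also: potency of inhibitors blocking the TRPC4 calcium response.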 The class given is functional.

The target of assay [7] is T6, DNA repair protein RAD52 homolog (Homo sapiens, UniProt P43351).
T6 sequence (P43351 whole entry): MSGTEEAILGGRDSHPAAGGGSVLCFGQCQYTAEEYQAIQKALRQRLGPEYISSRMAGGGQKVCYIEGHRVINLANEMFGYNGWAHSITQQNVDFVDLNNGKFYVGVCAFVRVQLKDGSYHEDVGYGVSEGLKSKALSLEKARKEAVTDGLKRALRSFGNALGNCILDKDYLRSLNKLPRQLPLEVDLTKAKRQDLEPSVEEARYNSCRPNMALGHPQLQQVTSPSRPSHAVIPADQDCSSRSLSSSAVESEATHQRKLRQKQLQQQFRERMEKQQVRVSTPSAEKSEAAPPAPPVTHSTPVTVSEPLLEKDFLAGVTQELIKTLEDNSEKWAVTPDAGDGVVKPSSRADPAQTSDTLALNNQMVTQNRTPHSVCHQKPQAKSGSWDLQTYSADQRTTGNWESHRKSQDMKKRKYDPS
The class given is functional, biochemical.

The target of assay [8] is 26S proteasome non-ATPase regulatory subunit 14 (Homo sapiens, UniProt O00487). As to the kind of experiment: inhibition of proteasome subunit RPN11 – biochemical, fluorescence polarization, uHTS hits, confirmation (AID 602368). The format is functional.
The test system of another assay is Vero. The assay can be described thus: cells. The class given is functional. The note with it: Chlorocebus sabaeus.
The next assay addresses Phospholipase A2 (Homo sapiens, UniProt P04054). The class given is functional.
The next assay concerns the target Prothrombin (Bos taurus, UniProt P00735). The assay can be described thus: thrombin protease inhibitors – biochemical, fluorescence polarization, uHTS hits, dose response (AID 602369). The class given is functional. On the technique in general: In fluorescence polarisation assays a small probe gives low polarisation when free and higher when bound to something large.

A further assay has as its target T7, Cysteine protease ATG4B (Homo sapiens, UniProt Q9Y4P1).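 Also: Fluorescence-based dose-response confirmation assay measuring inhibition of ATG4B activity.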
T7 sequence (Q9Y4P1 whole entry): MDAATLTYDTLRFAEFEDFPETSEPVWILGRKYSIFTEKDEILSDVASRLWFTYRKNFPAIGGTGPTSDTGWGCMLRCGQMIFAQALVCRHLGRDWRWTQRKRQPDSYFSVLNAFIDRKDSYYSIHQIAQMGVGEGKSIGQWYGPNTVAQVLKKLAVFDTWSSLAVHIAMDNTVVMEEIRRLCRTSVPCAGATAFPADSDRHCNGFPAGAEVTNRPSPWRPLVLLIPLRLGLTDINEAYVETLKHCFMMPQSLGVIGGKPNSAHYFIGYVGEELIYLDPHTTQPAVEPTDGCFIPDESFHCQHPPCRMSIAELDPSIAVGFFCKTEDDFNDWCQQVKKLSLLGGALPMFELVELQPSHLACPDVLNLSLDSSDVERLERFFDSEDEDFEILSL
The format is functional.

Assay [9] has as its target 72 kDa type IV collagenase (Homo sapiens, UniProt P08253). The assay can be described thus: Dose Response validation of uHTS RPN11 inhibitor hits using a MMP-2 Fluorescence assay. The format is functional.

Sequence of 26S proteasome non-ATPase regulatory subunit 14 (O00487 whole entry): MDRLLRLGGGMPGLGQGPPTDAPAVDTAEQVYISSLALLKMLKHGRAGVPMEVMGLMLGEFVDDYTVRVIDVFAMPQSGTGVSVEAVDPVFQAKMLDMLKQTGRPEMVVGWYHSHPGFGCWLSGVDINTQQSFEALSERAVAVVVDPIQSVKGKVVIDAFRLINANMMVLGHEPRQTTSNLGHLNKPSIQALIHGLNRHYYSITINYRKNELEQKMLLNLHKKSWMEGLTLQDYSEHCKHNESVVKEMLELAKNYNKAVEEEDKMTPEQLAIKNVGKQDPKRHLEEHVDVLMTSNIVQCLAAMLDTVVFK
Sequence of Phospholipase A2 (P04054 whole entry): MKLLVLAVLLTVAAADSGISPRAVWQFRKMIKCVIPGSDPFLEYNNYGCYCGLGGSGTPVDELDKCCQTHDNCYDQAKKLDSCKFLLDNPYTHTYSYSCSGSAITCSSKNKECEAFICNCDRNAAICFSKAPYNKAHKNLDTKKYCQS
Sequence of 72 kDa type IV collagenase (P08253 whole entry): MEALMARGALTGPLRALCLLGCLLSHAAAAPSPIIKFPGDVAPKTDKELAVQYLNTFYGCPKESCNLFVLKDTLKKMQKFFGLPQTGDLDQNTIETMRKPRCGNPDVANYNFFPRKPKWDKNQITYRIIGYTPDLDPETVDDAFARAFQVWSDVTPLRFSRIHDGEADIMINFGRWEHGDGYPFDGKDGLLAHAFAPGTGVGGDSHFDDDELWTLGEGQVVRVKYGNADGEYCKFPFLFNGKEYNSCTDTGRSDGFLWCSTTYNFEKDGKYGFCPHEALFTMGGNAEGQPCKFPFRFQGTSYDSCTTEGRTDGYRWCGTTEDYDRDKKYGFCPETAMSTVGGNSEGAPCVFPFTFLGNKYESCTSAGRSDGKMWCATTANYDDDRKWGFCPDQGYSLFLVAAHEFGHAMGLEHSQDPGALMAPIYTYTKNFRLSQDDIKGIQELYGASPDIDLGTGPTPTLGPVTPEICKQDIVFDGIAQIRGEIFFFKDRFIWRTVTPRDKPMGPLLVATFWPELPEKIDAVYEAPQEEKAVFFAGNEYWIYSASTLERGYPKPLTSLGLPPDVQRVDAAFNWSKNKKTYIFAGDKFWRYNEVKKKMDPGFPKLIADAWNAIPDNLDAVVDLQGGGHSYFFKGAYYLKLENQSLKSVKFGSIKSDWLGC

Take `CCOc1ccccc1NS(=O)(=O)c1c(C)[nH]c(C)c1C(=O)N1CCCCC1`: the values for the IC50 in assay [1], in [2] and in [3] were 11.2 µM (inactive), 83.3 µM (inactive) and 26.1 µM (inactive), respectively.

In the case of `CCOC(=O)c1sc(NC(=O)Nc2ccccc2)cc1C`, the results for the IC50 in assay [1], in [2] and in assay [3] were 43.9 µM (inactive), 45 µM (inactive) and 4.39 µM (active), respectively. Moreover, the EC50 in [4] is > 260 µM (inconclusive).

As for `O=C(NCc1cc(Cl)cc(Cl)c1)c1csc(COCCO)n1`, the results for the IC50 in [1], in assay [2] and in [3] were 5.4 µM (active), 83.3 µM (inactive) and 12.2 µM (inactive), respectively.

Consider `Cc1cc(/C=C\c2nc(O)c([N+](=O)[O-])c(O)n2)c(C)n1-c1ccccc1`, for which the AC50 in [5] was > 20 µM (inactive); at Caspase-6 it was 19.2 µM (active).

For the compound `CCc1ccc2nc(NC(=N)N)nc(C)c2c1`, in [6], the EC50 is 15 µM (active). Besides, the AC50 in [7] is 16.8 µM (active).

In the case of `CCCCCCCCCCCCCCC(O)C[N+](C)(CCO)CCO` (stereo unspecified), the IC50 is 25.3 µM (active) in [8]; 7.95 µM (active) at Phospholipase A2; 50 µM (active) at Prothrombin; 8.23 µM (active) at Cysteine protease ATG4B; 85 µM (active) in [9]. In addition, the CC50 in the assay on Vero was 13.1 µM (active). For the same compound, the AC50 in assay [7] was 8.88 µM (active).

Usually IC50 stands for the concentration that inhibits the measured activity by half. A word on the EC50: it is the midpoint of the concentration-response curve. The term AC50 denotes the midpoint of the concentration-response curve, whichever way the signal moves. The CC50 is the concentration at which the toxic effect on the cells reaches its halfway point.
